This is an account of results in ChEMBL document CHEMBL3739343, “Identification and activity of inhibitors of the essential nematode-specific metalloprotease DPY-31” (Bioorg Med Chem Lett, 2015).

The structures appear in SMILES notation. pIC50: −log10 of the molar value. Active and inactive are the calls of the source. The calls are words filed in the database; no cut-off is given here. Where a SMILES comes first, the peptide text is derived from it.

The target in assay [1] is T1, Zinc metalloproteinase dpy-31 (Brugia malayi, UniProt A8Q2D1).
T1 sequence (A8Q2D1 whole entry): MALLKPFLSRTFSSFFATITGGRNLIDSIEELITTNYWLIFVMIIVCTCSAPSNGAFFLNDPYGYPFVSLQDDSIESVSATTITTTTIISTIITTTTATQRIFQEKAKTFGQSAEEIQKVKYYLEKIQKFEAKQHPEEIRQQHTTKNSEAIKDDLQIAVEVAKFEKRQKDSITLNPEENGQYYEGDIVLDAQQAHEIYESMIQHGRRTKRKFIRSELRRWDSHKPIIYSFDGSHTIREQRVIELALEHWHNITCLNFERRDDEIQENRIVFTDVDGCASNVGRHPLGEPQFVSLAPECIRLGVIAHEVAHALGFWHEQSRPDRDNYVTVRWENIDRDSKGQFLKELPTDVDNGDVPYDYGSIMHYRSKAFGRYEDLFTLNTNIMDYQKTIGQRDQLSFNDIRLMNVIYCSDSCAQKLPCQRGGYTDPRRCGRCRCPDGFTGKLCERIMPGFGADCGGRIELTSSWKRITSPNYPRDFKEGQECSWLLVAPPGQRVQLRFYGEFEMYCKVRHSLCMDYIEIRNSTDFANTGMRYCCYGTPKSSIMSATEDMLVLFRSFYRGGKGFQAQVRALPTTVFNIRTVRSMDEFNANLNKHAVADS
Description: Inhibition of recombinant Brugia malayi DPY-31 astacin domain expressed in Escherichia coli using Suc-Ala-Ala-Ala-pNA as substrate preincubated for 3 hrs followed by substrate addition measured after 3 hrs by microplate reader assay. The note with it: for IC50: read-out: pIC50 (converted).

Assay [2] relates to Caenorhabditis elegans. Description: Antiparasitic activity against Teladorsagia circumcincta dpy-31 transgenically-rescued Caenorhabditis elegans dpy-31 mutant TP224 assessed as induction of Dpy phenotype at 100 uM after 3 days by microscopic analysis. Type of assay: functional, organism-based.
For assay [3], the system named is Teladorsagia circumcincta. Description: Antiparasitic activity against Teladorsagia circumcincta L3 assessed as induction of Dpy phenotype at 500 uM after 3 days by microscopic analysis. The format is functional, organism-based.
For assay [4], the system named is Caenorhabditis elegans. Description: Antiparasitic activity against wild type Caenorhabditis elegans N2 assessed as induction of Dpy phenotype at 50 uM measured after 3 days by microscopic analysis. The format is functional, organism-based.
Assay [5] concerns the target T2, Zinc metalloproteinase dpy-31 (Teladorsagia circumcincta, UniProt A0A0C5PRQ1).
T2 sequence (A0A0C5PRQ1 whole entry): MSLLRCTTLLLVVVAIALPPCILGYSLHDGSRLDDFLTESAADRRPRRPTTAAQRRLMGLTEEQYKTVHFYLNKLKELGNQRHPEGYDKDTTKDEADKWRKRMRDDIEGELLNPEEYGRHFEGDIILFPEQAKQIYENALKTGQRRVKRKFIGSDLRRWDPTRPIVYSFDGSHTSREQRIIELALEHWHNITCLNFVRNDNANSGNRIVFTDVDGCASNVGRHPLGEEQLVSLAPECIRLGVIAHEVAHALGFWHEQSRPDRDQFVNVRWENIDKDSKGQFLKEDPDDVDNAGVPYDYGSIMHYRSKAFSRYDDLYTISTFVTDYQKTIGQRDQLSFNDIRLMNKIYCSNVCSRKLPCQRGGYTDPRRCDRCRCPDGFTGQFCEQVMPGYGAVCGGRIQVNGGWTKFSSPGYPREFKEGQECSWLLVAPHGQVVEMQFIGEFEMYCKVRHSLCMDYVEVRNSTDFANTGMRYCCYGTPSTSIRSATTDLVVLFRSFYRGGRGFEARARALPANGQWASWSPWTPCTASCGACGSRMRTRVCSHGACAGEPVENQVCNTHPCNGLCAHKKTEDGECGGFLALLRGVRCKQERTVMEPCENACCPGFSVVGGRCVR
Description: Inhibition of recombinant Teladorsagia circumcincta DPY-31 astacin domain expressed in Escherichia coli using Suc-Ala-Ala-Ala-pNA as substrate preincubated for 3 hrs followed by substrate addition measured after 3 hrs by microplate reader assay.

Regarding `C[C@H](NC(=O)[C@@H]1CCCN1C(=O)OCC1c2ccccc2-c2ccccc21)C(=O)N[C@@H](Cc1ccccc1)C(=O)NO` (HELM PEPTIDE1{[O=C(OCC1c2ccccc2-c2ccccc21)[*:2]].P.A.F.[ON[*:1]]}$$$$V2.0), in assay [1], the IC50 was 25.1 µM. For the same compound, the result (with Caenorhabditis elegans [2]; in assay [3]; in the assay with Caenorhabditis elegans [4]) was Active. Besides, the pIC50 in assay [5] is 4.50.
Take `CNC(=O)[C@@H](NC(=O)[C@H](CC(C)C)[C@H](O)C(=O)NO)C(C)(C)C` [MARIMASTAT]: the pIC50 in assay [5] is 4.10.
As to `O=C(C[C@@H](CCCC1CCCCC1)c1nc(-c2cc(C(=O)O)ccn2)no1)NO`, the IC50 in assay [1] was 20 µM. Besides, the pIC50 in assay [5] is 4.40.
`COC(=O)[C@@H]1CCCN1C(=O)[C@H](C)CP(=O)(O)[C@H](Cc1ccccc1)NC(=O)[C@H](CCCCN)NC(=O)[C@@H]1CCCN1C(=O)OCc1ccccc1`: the pIC50 in assay [1] (read-out: IC50) is less than 3.30.
For the compound `C[C@H](NC(=O)[C@@H]1CCCN1C(=O)OC(C)(C)C)C(=O)N[C@@H](Cc1ccccc1)C(=O)NO` (HELM PEPTIDE1{[CC(C)(C)OC(=O)[*:2]].P.A.F.[ON[*:1]]}$$$$V2.0), the IC50 in assay [1] was 79.4 µM. The result (with Caenorhabditis elegans [2]; in assay [3]; in the assay on Caenorhabditis elegans [4]) was Active. Further, the pIC50 in assay [5] is 4.60.

The term pIC50 denotes the negative decadic logarithm of the IC50, by convention in mol/L.
